Assay results as given in patent US6737383B1, “Herbicidal oxadiazolidines” (priority 1999, dated 2004).

Columns and labels:
surinam grass = experiment: Test B pre/postemergence surinam grass; assay type: in vivo, Brachiaria decumbens
Procedure, shortened: (§1)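 Test chemicals in a non-phytotoxic solvent mixture with surfactant were sprayed preemergence onto planted seeds and postemergence onto plants 2 to 18 cm tall (1- to 4-leaf stage). After twelve to sixteen days in a greenhouse, injury was visually rated against untreated controls from 0 (no effect) to 10 (complete control).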

wheat = experiment: Test B pre/postemergence wheat; assay type: in vivo, Triticum aestivum
Procedure, shortened: as §1

pigweed = experiment: Test B pre/postemergence pigweed; assay type: in vivo, Amaranthus retroflexus
Procedure, shortened: as §1

giant foxtail = experiment: Test B pre/postemergence giant foxtail; assay type: in vivo, Setaria faberii
Procedure, shortened: as §1

blackgrass = experiment: Test B pre/postemergence blackgrass; assay type: in vivo, Alopecurus myosuroides
Procedure, shortened: as §1

purple nutsedge = experiment: Test B pre/postemergence purple nutsedge; assay type: in vivo, Cyperus rotundus
Procedure, shortened: as §1

soybean = experiment: Test B pre/postemergence soybean; assay type: in vivo, Glycine max
Procedure, shortened: as §1

velvetleaf = experiment: Test B pre/postemergence velvetleaf; assay type: in vivo, Abutilon theophrasti
Procedure, shortened: as §1

cocklebur = experiment: Test B pre/postemergence cocklebur; assay type: in vivo, Xanthium strumarium
Procedure, shortened: as §1

sugar beet = experiment: Test B pre/postemergence sugar beet; assay type: in vivo, Beta vulgaris
Procedure, shortened: as §1

crabgrass = experiment: Test B pre/postemergence crabgrass; assay type: in vivo, Digitaria sanguinalis
Procedure, shortened: as §1

wild oat = experiment: Test B pre/postemergence wild oat; assay type: in vivo, Avena fatua
Procedure, shortened: as §1

bedstraw = experiment: Test B pre/postemergence bedstraw; assay type: in vivo, Galium aparine
Procedure, shortened: as §1

corn = experiment: Test B pre/postemergence corn; assay type: in vivo, Zea mays
Procedure, shortened: as §1

morningglory = experiment: Test B pre/postemergence morningglory; assay type: in vivo, Ipomoea hederacea
Procedure, shortened: as §1

rape = experiment: Test B pre/postemergence rape; assay type: in vivo, Brassica napus
Procedure, shortened: as §1

[1] = Postemergence, Rate 62 g/ha, scale of 0 to 10, 0 is no effect, 10 is complete control
[2] = Postemergence, Rate 125 g/ha, scale 0 to 10, 0 is no effect, 10 is complete control
[3] = Postemergence, Rate 500 g/ha, scale 0 to 10, 0 is no effect, 10 is complete control
[4] = Preemergence, Rate 62 g/ha, scale of 0 to 10 where 0 is no effect and 10 is complete control
[5] = Preemergence, Rate 125 g/ha, scale 0 to 10, 0 is no effect, 10 is complete control
[6] = Rate 250 g/ha, Postemergence, scale of 0 to 10 where 0 is no effect and 10 is complete control
[7] = Preemergence, Rate 500 g/ha, scale of 0 to 10 where 0 is no effect and 10 is complete control

CC(C)N(C(=O)n1oc(=O)n(CCCC(F)(F)F)c1=O)c1ccc(F)cc1F [Compound 526]
B. signalgrass plant response rating (surinam grass; [1]): 0 | B. signalgrass plant response rating (surinam grass; [2]): 2 | Plant response rating, B. signalgrass (surinam grass; [3]): 6 | Plant response rating, B. signalgrass (surinam grass; [4]): 8 | B. signalgrass plant response rating (surinam grass; [5]): 9 | B. signalgrass plant response rating (0 to 10 scale, 0 is no effect, 10 is complete control) (surinam grass; Preemergence, Rate 250 g/ha): 9 | Plant response rating, B. signalgrass (surinam grass; [6]): 4 | Wheat plant response rating (wheat; [1]): 0 | Wheat plant response rating (wheat; [2]): 0 | Plant response rating, Wheat (wheat; [3]): 0 | Plant response rating, Wheat (wheat; [4]): 0 | Wheat plant response rating (wheat; [5]): 0 | Wheat plant response rating (0 to 10 scale) (wheat; Preemergence, Rate 250 g/ha): 8 | Plant response rating, Wheat (wheat; [6]): 0 | Redroot pigweed plant response rating (pigweed; [1]): 0 | Redroot pigweed plant response rating (pigweed; [2]): 0 | Plant response rating, Redroot pigweed (pigweed; [3]): 4 | Plant response rating, Redroot pigweed (pigweed; [4]): 4 | Redroot pigweed plant response rating (pigweed; [5]): 4 | Redroot pigweed plant response rating (0 to 10 scale) (pigweed; Preemergence, Rate 250 g/ha): 4 | Plant response rating, Redroot pigweed (pigweed; [6]): 2 | Giant foxtail plant response rating (giant foxtail; [1]): 3 | Giant foxtail plant response rating (giant foxtail; [2]): 3 | Plant response rating, Giant foxtail (giant foxtail; [3]): 8 | Plant response rating, Giant foxtail (giant foxtail; [4]): 9 | Giant foxtail plant response rating (giant foxtail; [5]): 10 | Giant foxtail plant response rating (0 to 10 scale) (giant foxtail; Preemergence, Rate 250 g/ha): 10 | Giant foxtail plant response rating (giant foxtail; [7]): 10 | Plant response rating, Giant foxtail (giant foxtail; [6]): 7 | Blackgrass plant response rating (blackgrass; [1]): 3 | Blackgrass plant response rating (blackgrass; [2]): 6 | Plant response rating, Blackgrass (blackgrass; [3]): 7 | Plant response rating, Blackgrass (blackgrass; [4]): 7 | Blackgrass plant response rating (blackgrass; [5]): 9 | Blackgrass plant response rating (0 to 10 scale) (blackgrass; Preemergence, Rate 250 g/ha): 10 | Plant response rating, Blackgrass (blackgrass; [6]): 9 | Nutsedge plant response rating (purple nutsedge; [1]): 0 | Nutsedge plant response rating (purple nutsedge; [2]): 0 | Plant response rating, Nutsedge (purple nutsedge; [3]): 2 | Plant response rating, Nutsedge (purple nutsedge; [4]): 0 | Nutsedge plant response rating (purple nutsedge; [5]): 0 | Nutsedge plant response rating (0 to 10 scale) (purple nutsedge; Preemergence, Rate 250 g/ha): 0 | Nutsedge plant response rating (purple nutsedge; [7]): 0 | Plant response rating, Nutsedge (purple nutsedge; [6]): 0 | Soybean plant response rating (soybean; [1]): 2 | Soybean plant response rating (soybean; [2]): 3 | Plant response rating, Soybean (soybean; [3]): 3 | Plant response rating, Soybean (soybean; [4]): 0 | Soybean plant response rating (soybean; [5]): 0 | Soybean plant response rating (0 to 10 scale) (soybean; Preemergence, Rate 250 g/ha): 0 | Soybean plant response rating (soybean; [7]): 0 | Plant response rating, Soybean (soybean; [6]): 3 | Velvetleaf plant response rating (velvetleaf; [1]): 4 | Velvetleaf plant response rating (velvetleaf; [2]): 4 | Plant response rating, Velvetleaf (velvetleaf; [3]): 8 | Plant response rating, Velvetleaf (velvetleaf; [4]): 0 | Velvetleaf plant response rating (velvetleaf; [5]): 2 | Velvetleaf plant response rating (0 to 10 scale) (velvetleaf; Preemergence, Rate 250 g/ha): 2 | Velvetleaf plant response rating (velvetleaf; [7]): 3 | Plant response rating, Velvetleaf (velvetleaf; [6]): 7 | Cocklebur plant response rating (cocklebur; [1]): 0 | Cocklebur plant response rating (cocklebur; [2]): 0 | Plant response rating, Cocklebur (cocklebur; [3]): 2 | Plant response rating, Cocklebur (cocklebur; [4]): 0 | Cocklebur plant response rating (cocklebur; [5]): 0 | Cocklebur plant response rating (0 to 10 scale) (cocklebur; Preemergence, Rate 250 g/ha): 0 | Cocklebur plant response rating (cocklebur; [7]): 0 | Plant response rating, Cocklebur (cocklebur; [6]): 0 | Sugarbeets plant response rating (sugar beet; [1]): 0 | Sugarbeets plant response rating (sugar beet; [2]): 0 | Plant response rating, Sugarbeets (sugar beet; [3]): 0 | Plant response rating, Sugarbeets (sugar beet; [4]): 4 | Sugarbeets plant response rating (sugar beet; [5]): 6 | Sugarbeets plant response rating (0 to 10 scale) (sugar beet; Preemergence, Rate 250 g/ha): 8 | Sugarbeets plant response rating (sugar beet; [7]): 8 | Plant response rating, Sugarbeets (sugar beet; [6]): 0 | Crabgrass plant response rating (crabgrass; [1]): 6 | Crabgrass plant response rating (crabgrass; [2]): 9 | Plant response rating, Crabgrass (crabgrass; [3]): 10 | Plant response rating, Crabgrass (crabgrass; [4]): 9 | Crabgrass plant response rating (crabgrass; [5]): 10 | Crabgrass plant response rating (0 to 10 scale) (crabgrass; Preemergence, Rate 250 g/ha): 10 | Crabgrass plant response rating (crabgrass; [7]): 10 | Plant response rating, Crabgrass (crabgrass; [6]): 9 | Wild oats plant response rating (wild oat; [1]): 0 | Wild oats plant response rating (wild oat; [2]): 0 | Plant response rating, Wild oats (wild oat; [3]): 0 | Plant response rating, Wild oats (wild oat; [4]): 7 | Wild oats plant response rating (wild oat; [5]): 9 | Wild oats plant response rating (0 to 10 scale) (wild oat; Preemergence, Rate 250 g/ha): 9 | Plant response rating, Wild oats (wild oat; [6]): 0 | Plant response rating, Bedstraw (bedstraw; [3]): 9 | Plant response rating, Bedstraw (bedstraw; [4]): 0 | Bedstraw plant response rating (bedstraw; [5]): 0 | Bedstraw plant response rating (0 to 10 scale) (bedstraw; Preemergence, Rate 250 g/ha): 7 | Corn plant response rating (corn; [1]): 0 | Corn plant response rating (corn; [2]): 2 | Plant response rating, Corn (corn; [3]): 2 | Plant response rating, Corn (corn; [4]): 0 | Corn plant response rating (corn; [5]): 0 | Corn plant response rating (0 to 10 scale) (corn; Preemergence, Rate 250 g/ha): 0 | Corn plant response rating (corn; [7]): 2 | Plant response rating, Corn (corn; [6]): 2 | Morningglory plant response rating (morningglory; [1]): 6 | Morningglory plant response rating (morningglory; [2]): 6 | Plant response rating, Morningglory (morningglory; [3]): 7 | Plant response rating, Morningglory (morningglory; [4]): 0 | Morningglory plant response rating (morningglory; [5]): 0 | Morningglory plant response rating (0 to 10 scale) (morningglory; Preemergence, Rate 250 g/ha): 0 | Morningglory plant response rating (morningglory; [7]): 2 | Plant response rating, Morningglory (morningglory; [6]): 6 | Rape plant response rating (rape; [1]): 0 | Rape plant response rating (rape; [2]): 4 | Plant response rating, Rape (rape; [3]): 4 | Plant response rating, Rape (rape; [4]): 4 | Rape plant response rating (rape; [5]): 4 | Rape plant response rating (0 to 10 scale) (rape; Preemergence, Rate 250 g/ha): 9
